For experiment [1], the system named is Septoria tritici (ATCC 26517). Put plainly: Minimum Inhibitory Concentration (MIC) (Septoria tritici), CLSI-based microdilution. Conditions: Zymoseptoria tritici, ATCC26517, 168 h; S. tritici ATCC 26517; 50% growth reduction; 7 days at 22 °C; read-out: Septoria Rating (MIC). It counts as cell-based. As for the experimental part: C. Minimum Inhibitory Concentration (MIC) (Septoria tritici) Compounds of the present disclosure were assessed for their ability to inhibit the growth of a common strain of the fungal plant pathogen Septoria tritici (ATCC 26517) using a procedure based on a Clinical and Laboratory Standards Institute (CLSI) microdilution assay protocol for filamentous fungi. Stock solutions of the test compounds and standards were prepared in DMSO at 6400 μg/mL. Each stock solution was used to prepare a 2-fold dilution series ranging from 16 to 0.016 μg/mL (total of 11 compound concentrations) in RPMI-1640 (Roswell Park Memorial Institute) medium containing 3-(N-morpholino)propanesulfonic acid (MOPS) buffer and 2% DMSO. A 100 μL aliquot of the dilutions was added to columns 1 (16 μg/mL compound) through 11 (0.016 μg/mL compound) of a 96-well microtiter plate. This format was replicated in a second row of the microtiter plate. Thus, each microtiter plate could include 11 concentrations of four test or control compounds replicated twice. A 100 μL aliquot of RPMI-1640/MOPS/2% DMSO medium was added to column 12 (no compound control) of the microtiter plate. A fresh culture of S. tritici was used to prepare a solution of approximately 5×10^4 colony-forming units per milliliter (cfu/mL) in RPMI/MOPS medium without DMSO. A 100 μL aliquot of this solution was added to all 96 wells in the microtiter plate. […] The assay plates were incubated at 22° C. for seven days in the dark without shaking. […] In each case of Table 3 the rating scale is as follows: […]

Experiment [2] concerns Puccinia recondita tritici. Put plainly: Fungicidal activity vs. leaf rust on wheat plants (PUCCRT). It counts as in vivo, Puccinia recondita tritici=Puccinia triticina. To be noted: 50 ppm spray on wheat (variety Yuma); inoculated the following day; severity evaluated 7-9 days later. The text has this: D. Evaluation of Fungicidal Activity Vs. Leaf Rust (Causal Agent Puccinia recondita tritici=Puccinia triticina; Bayer Code PUCCRT).
Each pot contained 3-8 seedlings. These plants were sprayed until wet with the formulated test compounds. The compounds were formulated at 50 ppm in 10 vol. % acetone plus 90 vol. % Triton X water (deionized water 99.99 wt %+0.01 wt % Triton X100), giving a “formulated test compound.” Formulated test compounds were applied to plants using a turn table sprayer fitted with two opposing air atomization nozzles which delivered approximately 1500 L/ha of spray volume. On the following day, the leaves were inoculated with an aqueous spore suspension of Puccinia recondita tritici and the plants were kept in high humidity overnight to permit spores to germinate and infect the leaf. The plants were then transferred to a greenhouse until disease developed on untreated control plants. Disease severity was evaluated 7-9 days later, depending on the speed of disease development. Compounds 4(−), 9(+), 11, 13, 18, 21, 25, 26, 27, 28, 32, 34, 37, 38, 39, 42, 43, 48, 51, 52, 56, 57, and 59 were selected for testing against PUCCRT at 50 ppm. Compounds that provided >80% disease control at 50 ppm included 4(−), 9(+), 11, 13, 18, 21, 25, 26, 27, 28, 32, 34, 37, 38, 39, 42, 43, 48, 52, 56, and 57.

SMILES strings stand for the structures. Converted amounts (≈) assume the structure as drawn.

As to `OC(Cn1cnnn1)(c1ccc(F)cc1F)C(F)(F)c1ccc2cc(Cl)ccc2n1` (stereo not drawn) [4(−), 1-(6-Chloroquinolin-2-yl)-2-(2,4-difluorophenyl)-1,1-difluoro-3-(1H-tetrazol-1-yl)propan-2-ol], the MIC in experiment [1] is at most 0.5 µg/mL. The disease control in experiment [2] is listed as above 80%.

Regarding `OC(Cn1cnnn1)(c1ccc(F)cc1F)C(F)(F)c1ccc2cc(Br)ccc2n1` (stereo not drawn) [9(+), 1-(6-Bromoquinolin-2-yl)-2-(2,4-difluorophenyl)-1,1-difluoro-3-(1H-tetrazol-1-yl)propan-2-ol], the minimal inhibitory concentration (MIC) in experiment [1] is at most 0.5 µg/mL. In experiment [2], the disease control is above 80%.

For `OC(Cn1cnnn1)(c1ccc(F)cc1F)C(F)(F)c1nc2ccc(Cl)cc2s1` (stereo not drawn) [Compound 11, 1-(6-Chlorobenzo[d]thiazol-2-yl)-2-(2,4-difluorophenyl)-1,1-difluoro-3-(1H-tetrazol-1-yl)propan-2-ol], the MIC in experiment [1] was at most 0.5 µg/mL. For the same compound, the disease control in experiment [2] is on record as above 80%.

As to `OC(Cn1cnnn1)(c1ccc(F)cc1F)C(F)(F)c1ccc(Br)s1` (stereo not drawn) [Compound 13, 1-(5-Bromothiophen-2-yl)-2-(2,4-difluorophenyl)-1,1-difluoro-3-(1H-tetrazol-1-yl)propan-2-ol], in experiment [1], the MIC is at most 0.5 µg/mL. The compound further had a disease control in experiment [2] above 80%.

Regarding `OC(Cn1cnnn1)(c1ccc(F)cc1F)C(F)(F)c1ccc2cc(C(F)(F)F)ccc2n1` (stereo not drawn) [Compound 18, 2-(2,4-Difluorophenyl)-1,1-difluoro-3-(1H-tetrazol-1-yl)-1-(6-(trifluoromethyl)quinolin-2-yl)propan-2-ol], the MIC in experiment [1] was at most 0.5 µg/mL. The compound also displayed a disease control in experiment [2] above 80%.

For `OC(Cn1cnnn1)(c1ccc(F)cc1F)C(F)(F)c1ccc2cc(OC(F)(F)F)ccc2n1` (stereo not drawn) [Compound 21, 2-(2,4-Difluorophenyl)-1,1-difluoro-3-(1H-tetrazol-1-yl)-1-(6-(trifluoromethoxy)quinolin-2-yl)propan-2-ol], the MIC in experiment [1] is at most 0.5 µg/mL. In addition, the disease control in experiment [2] was above 80%.

For `OC(Cn1cnnn1)(c1ccc(F)cc1F)C(F)(F)c1ccc2cc(C(F)F)ccc2n1` (stereo not drawn) [Compound 25, 1-(6-(Difluoromethyl)quinolin-2-yl)-2-(2,4-difluorophenyl)-1,1-difluoro-3-(1H-tetrazol-1-yl)propan-2-ol], in experiment [1], the MIC is at most 0.5 µg/mL. In experiment [2], this compound displayed a disease control above 80%.

`Cc1ccc2nc(C(F)(F)C(O)(Cn3cnnn3)c3ccc(F)cc3F)ccc2c1` (stereo not drawn) [Compound 26, 2-(2,4-Difluorophenyl)-1,1-difluoro-1-(6-methylquinolin-2-yl)-3-(1H-tetrazol-1-yl)propan-2-ol]: in experiment [1], the MIC is at most 0.5 µg/mL. The compound also gave a disease control in experiment [2] above 80%.

`OC(Cn1cnnn1)(c1ccc(F)cc1F)C(F)(F)c1nc2ccc(Br)cc2s1` (stereo not drawn) [Compound 27, 1-(6-Bromobenzo[d]thiazol-2-yl)-2-(2,4-difluorophenyl)-1,1-difluoro-3-(1H-tetrazol-1-yl)propan-2-ol]: in experiment [1], the MIC is at most 0.5 µg/mL. Moreover, in experiment [2], the disease control is listed as above 80%.

`OC(Cn1ncnn1)(c1cc(F)ccc1F)C(F)(F)c1ccc2cc(Cl)ccc2n1` (stereo not drawn) [Compound 28, 1-(6-Chloroquinolin-2-yl)-2-(2,5-difluorophenyl)-1,1-difluoro-3-(2H-tetrazol-2-yl)propan-2-ol]: the MIC in experiment [1] is at most 0.5 µg/mL. For the same compound, the disease control in experiment [2] is reported as above 80%.

On to `OC(Cn1cnnn1)(c1ccc(F)cc1)C(F)(F)c1ccc2cc(Cl)ccc2n1` (stereo not drawn) [Compound 32, 1-(6-Chloroquinolin-2-yl)-1,1-difluoro-2-(4-fluorophenyl)-3-(1H-tetrazol-1-yl)propan-2-ol], for which the MIC in experiment [1] was at most 0.5 µg/mL. The same compound came in with a disease control in experiment [2] above 80%.

Take `OC(Cn1cnnn1)(c1ccc(Cl)cc1F)C(F)(F)c1cnc2cc(Cl)ccc2n1` (stereo not drawn) [Compound 34, 2-(4-Chloro-2-fluorophenyl)-1-(6-chloroquinoxalin-2-yl)-1,1-difluoro-3-(1H-tetrazol-1-yl)propan-2-ol]: the MIC in experiment [1] is at most 0.5 µg/mL. Also, in experiment [2], the disease control is above 80%.

For `OC(Cn1cnnn1)(c1ccc(F)cc1F)C(F)(F)c1cc2ccc(Cl)cc2cn1` (stereo not drawn) [Compound 37, 1-(7-Chloroisoquinolin-3-yl)-2-(2,4-difluorophenyl)-1,1-difluoro-3-(1H-tetrazol-1-yl)propan-2-ol], the MIC in experiment [1] is at most 0.5 µg/mL. For the same compound, in experiment [2], the disease control is listed as above 80%.

As to `OC(Cn1cnnn1)(c1ccc(F)cc1F)C(F)(F)c1cnc2cc(Br)ccc2n1` (stereo not drawn) [Compound 38, 1-(6-Bromoquinoxalin-2-yl)-2-(2,4-difluorophenyl)-1,1-difluoro-3-(1H-tetrazol-1-yl)propan-2-ol], the MIC in experiment [1] was at most 0.5 µg/mL. The disease control in experiment [2] is reported as above 80%.

`OC(Cn1cnnn1)(c1ccc(F)cc1F)C(F)(F)c1cnc(-c2ccc(OC(F)F)cc2)cn1` (stereo not drawn) [Compound 39, 1-(5-(4-(Difluoromethoxy)phenyl)pyrazin-2-yl)-2-(2,4-difluorophenyl)-1,1-difluoro-3-(1H-tetrazol-1-yl)propan-2-ol]: the MIC in experiment [1] is at most 0.5 µg/mL. In experiment [2], this compound registered a disease control above 80%.

On to `OC(Cn1cnnn1)(c1ccc(F)cc1F)C(F)(F)c1cnc(-c2ccc(OC(F)(F)F)cc2)cn1` (stereo not drawn) [Compound 42, 2-(2,4-Difluorophenyl)-1,1-difluoro-3-(1H-tetrazol-1-yl)-1-(5-(4-(trifluoromethoxy)phenyl)pyrazin-2-yl)propan-2-ol], for which the MIC in experiment [1] was at most 0.5 µg/mL. The disease control in experiment [2] is recorded as above 80%.

For `OC(Cn1cnnn1)(c1ccc(F)cc1F)C(F)(F)c1cnc(-c2ccc(Br)cc2)cn1` (stereo not drawn) [Compound 43, 1-(5-(4-Bromophenyl)pyrazin-2-yl)-2-(2,4-difluorophenyl)-1,1-difluoro-3-(1H-tetrazol-1-yl)propan-2-ol], in experiment [1], the MIC was at most 0.5 µg/mL. In experiment [2], this compound returned a disease control above 80%.

Take `COc1ccc(-c2cnc(C(F)(F)C(O)(Cn3cnnn3)c3ccc(F)cc3F)cn2)cc1` (stereo not drawn) [Compound 48, 2-(2,4-Difluorophenyl)-1,1-difluoro-1-(5-(4-methoxyphenyl)pyrazin-2-yl)-3-(1H-tetrazol-1-yl)propan-2-ol]: the MIC in experiment [1] was at most 0.5 µg/mL. For the same compound, the disease control in experiment [2] is on record as above 80%.

For `OC(Cn1cnnn1)(c1ccc(F)cc1F)C(F)(F)c1cnc(CCc2ccc(F)cc2)cn1` (stereo not drawn) [Compound 52, 2-(2,4-Difluorophenyl)-1,1-difluoro-1-(5-(4-fluorophenethyl)pyrazin-2-yl)-3-(1H-tetrazol-1-yl)propan-2-ol], the MIC in experiment [1] was at most 0.5 µg/mL. In experiment [2], this compound showed a disease control above 80%.

Consider `OC(Cn1cnnn1)(c1ccc(F)cc1F)C(F)(F)c1ccc(-c2ccc(C(F)(F)F)cc2)nn1` (stereo not drawn) [Compound 56, 2-(2,4-Difluorophenyl)-1,1-difluoro-3-(1H-tetrazol-1-yl)-1-(6-(4-(trifluoromethyl)phenyl)pyridazin-3-yl)propan-2-ol], for which the minimal inhibitory concentration (MIC) in experiment [1] fell in the range of 0.5 to 1.5 µg/mL (≈ 1 to 3.01 µM). In addition, in experiment [2], the disease control is on record as above 80%.

Turning to `OC(Cn1cnnn1)(c1ccc(F)cc1F)C(F)(F)c1ccc(-c2ccc(OC(F)(F)F)cc2)nn1` (stereo not drawn) [Compound 57, 2-(2,4-Difluorophenyl)-1,1-difluoro-3-(1H-tetrazol-1-yl)-1-(6-(4-(trifluoromethoxy)phenyl)pyridazin-3-yl)propan-2-ol], the minimum inhibitory concentration (MIC) in experiment [1] was at most 0.5 µg/mL. The same compound came in with a disease control in experiment [2] above 80%.

As to `C=Cc1ccc2nc(C(F)(F)C(O)(Cn3cnnn3)c3ccc(F)cc3F)cnc2c1` (stereo not drawn) [Compound 59, 2-(2,4-Difluorophenyl)-1,1-difluoro-3-(1H-tetrazol-1-yl)-1-(6-vinylquinoxalin-2-yl)propan-2-ol], the MIC in experiment [1] lay in the range of 0.5 to 1.5 µg/mL (≈ 1.16 to 3.49 µM).

Consider `OC(Cn1cnnn1)(c1ccc(F)cc1F)C(F)(F)c1ccc(-c2ccc(OCC(F)(F)F)cc2)cc1` (stereo not drawn) [Compound 60, 2-(2,4-Difluorophenyl)-1,1-difluoro-3-(1H-tetrazol-1-yl)-1-(4′-(2,2,2-trifluoroethoxy)biphenyl-4-yl)propan-2-ol], for which the MIC in experiment [1] was in the range of 1.5 to 4 µg/mL (≈ 2.85 to 7.6 µM).

For `OC(Cn1cnnn1)(c1ccc(F)cc1F)C(F)(F)c1ccc(-c2ccc(F)cc2)cc1` (stereo not drawn) [Compound 61, 2-(2,4-Difluorophenyl)-1,1-difluoro-1-(4′-fluoro-[1,1′-biphenyl]-4-yl)-3-(1H-tetrazol-1-yl)propan-2-ol], the MIC in experiment [1] lay in the range of 0.5 to 1.5 µg/mL (≈ 1.12 to 3.36 µM).

The record behind these values is patent publication US8883797B2, “Metalloenzyme inhibitor compounds” (Viamet Pharmaceuticals, Inc., priority 2011, dated 2014).
